Assay results taken from PMC8159961, “Exploring protein hotspots by optimized fragment pharmacophores” (Nature Communications, 2021).

Legend:
human 5-HT1A receptor = target: T1, human 5-HT1A receptor (Homo sapiens, UniProt P08908); assay: GPCR radioligand binding assay, [3H]-8-OH-DPAT displacement, HEK293 membranes; details: for 5-HT1A % Inhibition by plate position: 10 µM; for %inh 5-HT1A average: average of exp_1 and exp_2; for %inh 5-HT1A exp_1: replicate exp_1; for %inh 5-HT1A exp_2: replicate exp_2; for %inh 5-HT1A corrected*: average, values below 0 and above 100% were set as 0 and 100
T1 construct: expressed in transfected cells
T1 sequence (P08908 1-422): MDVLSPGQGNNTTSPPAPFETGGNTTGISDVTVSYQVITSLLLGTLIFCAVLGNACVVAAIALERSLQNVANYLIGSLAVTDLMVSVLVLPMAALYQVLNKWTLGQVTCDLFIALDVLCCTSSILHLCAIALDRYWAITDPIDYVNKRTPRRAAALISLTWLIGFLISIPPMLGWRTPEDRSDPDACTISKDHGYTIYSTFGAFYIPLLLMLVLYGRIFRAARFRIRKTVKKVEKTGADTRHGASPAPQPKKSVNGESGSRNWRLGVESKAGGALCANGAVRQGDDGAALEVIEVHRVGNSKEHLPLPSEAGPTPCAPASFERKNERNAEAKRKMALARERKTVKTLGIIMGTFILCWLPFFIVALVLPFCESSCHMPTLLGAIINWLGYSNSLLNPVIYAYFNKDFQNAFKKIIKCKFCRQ

human 5-HT6 receptor = target: T2, human 5-HT6 receptor (Homo sapiens, UniProt P50406); assay: GPCR radioligand binding assay, [3H]-LSD displacement, HEK293 membranes; details: for 5-HT6 % Inhibition by plate position: 10 µM; for %inh 5-HT6 average: average of exp_1 and exp_2; for %inh 5-HT6 corrected*: average, values below 0 and above 100% were set as 0 and 100; for %inh 5-HT6 exp_1: replicate exp_1; for %inh 5-HT6 exp_2: replicate exp_2
T2 construct: expressed in transfected cells

human 5-HT7b receptor = target: T3, human 5-HT7b receptor (Homo sapiens, UniProt P34969); assay: GPCR radioligand binding assay, [3H]-5-CT displacement, HEK293 membranes; details: for 5-HT7 % Inhibition by plate position: 10 µM; for %inh 5-HT7 average: average of exp_1 and exp_2; for %inh 5-HT7 exp_1: replicate exp_1; for %inh 5-HT7 exp_2: replicate exp_2
T3 construct: expressed in transfected cells
T3 sequence (P34969 1-432): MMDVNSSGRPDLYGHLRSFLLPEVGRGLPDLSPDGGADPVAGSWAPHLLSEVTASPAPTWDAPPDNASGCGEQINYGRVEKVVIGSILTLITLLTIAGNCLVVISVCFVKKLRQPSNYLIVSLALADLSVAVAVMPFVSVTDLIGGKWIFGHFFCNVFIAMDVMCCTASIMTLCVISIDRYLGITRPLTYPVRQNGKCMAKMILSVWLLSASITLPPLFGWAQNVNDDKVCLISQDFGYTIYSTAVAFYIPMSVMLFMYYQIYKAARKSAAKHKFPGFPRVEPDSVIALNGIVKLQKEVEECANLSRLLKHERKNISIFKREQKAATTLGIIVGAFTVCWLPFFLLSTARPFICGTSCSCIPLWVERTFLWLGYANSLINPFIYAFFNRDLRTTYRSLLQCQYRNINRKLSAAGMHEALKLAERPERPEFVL

T2 sequence (P50406 whole entry): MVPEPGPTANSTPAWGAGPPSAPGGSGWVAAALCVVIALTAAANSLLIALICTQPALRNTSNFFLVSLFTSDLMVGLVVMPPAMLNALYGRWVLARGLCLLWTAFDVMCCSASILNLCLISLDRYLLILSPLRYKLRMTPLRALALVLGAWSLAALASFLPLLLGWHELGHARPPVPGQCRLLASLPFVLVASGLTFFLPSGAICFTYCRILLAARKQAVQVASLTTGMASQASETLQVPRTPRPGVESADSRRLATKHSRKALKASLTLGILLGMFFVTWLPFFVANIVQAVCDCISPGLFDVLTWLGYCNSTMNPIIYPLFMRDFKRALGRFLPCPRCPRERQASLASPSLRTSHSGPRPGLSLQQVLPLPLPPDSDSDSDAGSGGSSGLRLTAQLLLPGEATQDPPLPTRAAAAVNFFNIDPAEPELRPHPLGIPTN

Compound	5-HT1A % Inhibition by plate position (human 5-HT1A receptor) [%]	%inh 5-HT1A average (human 5-HT1A receptor) [%]	%inh 5-HT1A exp_1 (human 5-HT1A receptor) [%]	%inh 5-HT1A exp_2 (human 5-HT1A receptor) [%]	5-HT6 % Inhibition by plate position (human 5-HT6 receptor) [%]	%inh 5-HT6 average (human 5-HT6 receptor) [%]	%inh 5-HT6 corrected* (human 5-HT6 receptor) [%]	%inh 5-HT6 exp_1 (human 5-HT6 receptor) [%]	%inh 5-HT6 exp_2 (human 5-HT6 receptor) [%]	5-HT7 % Inhibition by plate position (human 5-HT7b receptor) [%]	%inh 5-HT7 average (human 5-HT7b receptor) [%]	%inh 5-HT7 exp_1 (human 5-HT7b receptor) [%]	%inh 5-HT7 exp_2 (human 5-HT7b receptor) [%]	%inh 5-HT1A corrected* (human 5-HT1A receptor) [%]
Cc1nc(-c2ccccc2)cs1 [A7]	0	-4.34	-13	4	50	50	50	50	50	0	-0.168	-4	3.71	
Cc1cc(-c2ccccc2)n[nH]1 [A8]		9	9	9	48	48	48	44	52	34		37	32	9
Brc1ccc(-c2ccon2)cc1 [A9]		3.49	4	3	34	34	34	40	29	5.57		1.16	10	3.49
COc1ccccc1N1CCNCC1 [A10]	100	102	101	103	69	69	69	80	58	72		67	76	
COc1ccccc1C1CCNCC1 [A11]		99	100	98	71	71	71	82	59	73		64	81	99
CS(=O)(=O)c1ccc(N2CCNCC2)cc1 [B1]		4.22	8.43	0	28	28	28	28	28	35		29	40	4.22
O=C1CNCCN1c1ccccc1 [B2]		4.62	9	0	47	47	47	50	44	0	-2.46	14	-19	4.62
O=C1CCCc2occc21 [B3]	0	-4.51	-9	0	34	34	34	37	30	0	-2.76	8	-14	
NC1CCc2ccccc21 (stereo not drawn) [B4]		17	19	16	16	16	16	16	17	28		28	28	17
N[C@H]1c2ccccc2C[C@H]1CO [B5]	0	-0.612	-19	18	25	25	25	25	25	6		14	-1	
O=c1[nH]ncc2c1oc1ccccc12 [B6]	0	-6.46	-14	0.625	26	26	26	18	34	0	-4	3.34	-11	
O=C1NC(=O)C2(CCc3ccccc32)N1 (stereo not drawn) [B7]	0	-12	-22	-1.44	32	32	32	32	31	3.8		10	-2.31	
CS(=O)(=O)c1ccc(OC(F)(F)F)cc1 [B8]	0	-30	-20	-40	4	4	4	0	8	6		3.74	8	
Cc1cnc(C(F)(F)F)cn1 [B9]		1.1	-7	9	32	32	32	32	33	11		14	7	1.1
CN1CC(=O)NC1=O [B10]	0	-4.34	4	-13	35	35	35	31	40	0	-7.6	-15	0	
Cc1cc(N)no1 [B11]	0	-21	-18	-24	37	37	37	40	34	1.49		-8	11	
Fc1ccc(CC2CCCNC2)cc1 (stereo not drawn) [C1]		21	23	19	42	42	42	47	37	22		27	18	21
c1ccc(-c2ccncc2)cc1 [C2]	0	-6	-11	0	36	36	36	32	40	6		14	-2	
NC(c1ccccc1)c1ccccc1 [C3]	0	-12	-22	-1.84	25	25	25	16	33	0	-9	-16	-1	
